Measurements taken from patent US9612243B1, “Methods and compositions for targeted two-dimensional western blot analysis for early cancer detection and cancer diagnosis up to ten years in advance of clinical symptoms of malignant disease” (Mor-NuCo Enterprises, Inc., priority 2016, dated 2017).

Legend:
[1] = biological target: T1, ENOX2 (Homo sapiens, UniProt Q16206); assay: 2-D gel electrophoresis/western blot, incubation with 15 μM NADH compared to no NADH; details: 15 μM NADH in the assay compared to no NADH, FIG. 1
T1 sequence (Q16206 1-610): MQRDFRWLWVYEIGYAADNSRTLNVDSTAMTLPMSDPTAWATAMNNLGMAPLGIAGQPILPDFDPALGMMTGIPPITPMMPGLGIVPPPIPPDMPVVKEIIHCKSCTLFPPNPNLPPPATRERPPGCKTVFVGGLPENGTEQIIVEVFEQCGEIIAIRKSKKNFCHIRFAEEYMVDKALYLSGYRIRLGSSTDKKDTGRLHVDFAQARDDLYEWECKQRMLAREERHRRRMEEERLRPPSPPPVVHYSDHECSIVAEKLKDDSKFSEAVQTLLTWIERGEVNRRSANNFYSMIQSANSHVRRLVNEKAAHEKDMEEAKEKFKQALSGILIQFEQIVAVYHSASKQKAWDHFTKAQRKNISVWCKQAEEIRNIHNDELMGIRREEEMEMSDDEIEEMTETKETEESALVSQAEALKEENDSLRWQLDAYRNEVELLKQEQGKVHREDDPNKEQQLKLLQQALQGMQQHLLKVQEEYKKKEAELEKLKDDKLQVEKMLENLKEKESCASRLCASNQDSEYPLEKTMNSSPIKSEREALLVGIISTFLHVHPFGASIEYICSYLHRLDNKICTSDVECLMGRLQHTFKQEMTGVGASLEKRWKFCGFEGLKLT
Protocol: In order to maintain an active ENOX2 during western blotting with antibody, following blocking for 10 minutes with 1% milk and two rinses with TBST to remove excess milk, reduced pyridine nucleotides [NAD(P)H] were added at a concentration of 15 μM during incubation with the primary scFv antibody. NADH is preferred at a final concentration in the range of 10 μM. Incubation of the blot with antibody with or without shaking at any temperature between 4° C. and 40° C. for times of 1 to 16 hours depending on the concentration of NADH, the temperature and the antibody titer, preferably with incubation at 4° C. overnight (approximately 16 hours) with shaking.

[2] = biological target: T1, ENOX2; assay: ENOX2 activity versus NADH concentration, Lineweaver-Burke plot with and without antibody; type: biochemical; details: FIG. 2
Description: FIG. 2 is a graph that depicts the relationship of ENOX2 activity and concentration of NADH.

[3] = system: heavy (ca. 52 kDa) and light (ca. 25 kDa) immunoglobulin chain proteins; assay: 2-D gel/western blot cross-reactivity with serum proteins; type: binding, human; details: on some blots
Description: Separation in the first dimension was by isoelectric focusing over the pH range of 3 to 10 and separation in the second dimension was by 10 percent SDS-PAGE. Isoelectric points of the ENOX2 transcript variants were in the range of 3.2 to 6.3. The principal reactive proteins other than the ENOX2 forms were a 53 kDa isoelectric point pH 4.1, mostly phosphorylated alpha-fetuin (Labeled “R” in FIG. 8) which served as a convenient loading control and isoelectric point reference and a 79-85 kDa, isoelectric point pH 6.8 serotransferrin which served as a second point of reference for loading and as an isoelectric point reference. The two cross reactive reference proteins are present in a majority of sera and plasma of both cancer and non-cancer subjects.
For western blot analysis, 30 μL of sera was added to 120 μL of Rehydration Buffer (7M urea, 2 M thiourea, 2% (w/v) CHAPS [(3-[(3-cholamidopropyl)dimethylammonio]-1-propane-sulfonate), a nondenaturing zwitterionic detergent], 0.5% (w/v) ASB-14 (amidosulfobetaine-14, a zwitterionic detergent), 0.5% (v/v) ampholytes pH 3-10 (Bio-Rad), 0.5% (v/v) immobilized pH gradient (IPG) buffer pH 3-10 (Amersham-Pharmacia Biotech) and 65 mM dithiothreitol). The samples were quickly vortexed to mix sera with Rehydration Buffer. Four to six mg of protein were loaded for analysis. […] Quantitation utilized an algorithm developed for this purpose. […]

Molecule: NC(=O)C1=CN([C@@H]2O[C@H](COP(=O)(O)OP(=O)(O)OC[C@H]3O[C@@H](n4cnc5c(N)ncnc54)[C@H](O)[C@@H]3O)[C@@H](O)[C@H]2O)C=CC1 [NADH]
- increase in spot size and density of ENOX2 [1]: two-fold increase
- NADH concentration at which maximum ENOX2 activity was achieved [2]: about 500 μM

B1: recombinant scFv: pan ENOX2 recombinant single chain variable region (scFv) antibody carrying an S tag, alkaline phosphatase linked (antibody, V domains shown)
VH: EVKLQESGTEVVKPGASVKLSCKASGYIFTSYDIDWVRQTPEQGLEWIGWIFPGEGSTEYNEKFKGRATLSVDKSSSTAYMELTRLTSEDSAVYFCARGDYYRRYFDLWGQGTTVTVSS
VL: ENVLTQSPAIMSASPGERVTMTCSASSSIRYIYWYQQKPGSSPRLLIYDTSNVAPGVPFRFSGSGSGTSYSLTINRMEAEDAATYYCQEWSGYPYTFGGGTKLELK
modifications: left off: things letters cannot carry; another chain or arm of the molecule; a dimerising Fc or GST; small tags and cut ends
notes: pan ENOX2 recombinant single chain variable region (scFv) antibody carrying an S tag, alkaline phosphatase linked
- cross-reactivity with immunoglobulin chain proteins [3]: weakly cross-reactive
